The test relates to dissociated rat cortical neurons. Description: Axon 3D growth after local delivery of soluble factors in silk scaffold/collagen gel 3D brain tissue model (β III-tubulin staining, 3D neurite tracing). The format is cell-based. Conditions: for Axon length: 3D culture, mean±SEM; for axon abundance in center core of 3D cultures (β III-tubulin 2D projections): ECM components compared to neurotrophic factors, ranking among neurotrophic factors; for axons longer compared to BDNF / axons longer compared to the control: axon lengths at DIV 7, 4 days exposure; for axons longer compared to BDNF: vs BDNF; for axons longer compared to the control: vs control culture. The text has this: In one aspect of the present disclosure, control of axon growth and alignment in a CNS environment is critical for nervous system development and regenerative growth. The present disclosure explores the effects of exogenous stimulus of electrical signals and soluble factors on axon 3D growth, using a silk protein material-based 3D brain tissue model. A pair of gold wires were threaded into the 3D tissue model, positioned at the interface of the scaffold region and the center gel region, spanning the axon growth area. This setup delivered applied electrical field directly to growing axons, and the effects were compared to local delivery of soluble factors including extracellular (ECM) components and neurotrophic factors. In one embodiment, dissociated rat cortical neurons were exposed to an alternating field of 80 mV/mm at 0.5 Hz to 2 kHz or soluble factors for up to 4 days, starting on day 3 in vitro (DIV 3), and evaluated by of β III-tubulin immunostaining, confocal imaging and 3D neurite tracing. […] In one embodiment, though axon lengths under 2 Hz stimulation and LN or FN exposure were statistically similar, significant AC-induced axon orientation was found under all frequencies tested. In one embodiment, the effects include perpendicular orientation of axons trespassing an electrode and aligned axon tracts in parallel to the field direction. In one embodiment, the electrode in AC field acts as an alternating cathode that attracts the growing tip of the axon, and AC field between pair electrodes orient axon tract formation in parallel to the field direction. Provided in this disclosure is the use of alternating electric field stimulation to direct axon 3D length growth and orientation. In one aspect, the present disclosure provides stimulation parameters, in conjunction of delivery of growth promoting soluble factors in a brain mimetic 3D environment. In one aspect, the present disclosure teaches the fundamental effects of electrical fields on nervous system development and for testing neuromodulation approaches to promote neural regeneration.
The 3D brain tissue is composed of silk protein material-based scaffold and infused extracellular matrix (ECM) gel, such as collagen type I gel used in this study, as described previously (Tang-Schomer, 2014, 2015). The center region of the donut-shaped scaffold is filled with ECM gel only, for axon outgrowth; whereas the cell bodies are confined to the scaffold region. […]
Axon growth in the 3D brain tissue model was compared after local delivery of soluble factors, including extracellular matrix components such as laminin (LN) and fibronectin (FN) and brain-derived neurotrophic factor (BDNF), glial-derived neurotrophic factor (GDNF), neurotrophin-3 (NT3), and nerve growth factor (NGF) (FIGS. 13A-M). FIGS. 13A-J show representative 2D projections of β III-tubulin stained axons in the center core of 3D cultures.
The rat brain tissue dissociation protocol was approved by Tufts University Institutional Animal Care and Use Committee and complies with the NIH Guide for the Care and Use of Laboratory Animals (IACUC #B2011-45). Cortices from embryonic day 18 (E18) Sprague Dawley rats (Charles River, Wilmington, Mass., USA) were isolated, dissociated with trypsin (0.3%, Sigma) and DNase (0.2%, Roche Applied Science, Indianapolis, Ind., USA) followed with trypsin inhibition with soybean proteins (1 mg/mL, Sigma), centrifuged, and plated at 200,000-625,000 cells/cm^2 in NeuroBasal media (Invitrogen, Carlsbad, Calif., USA) supplemented with B-27 neural supplement, penicillin/streptomycin (100 U/mL and 100 μg/mL), and GlutaMax (2 mM) (Invitrogen). Cultures were maintained in 37° C., 100% humidity and 5% CO2 in an incubator (Forma Scientific, Marietta, Ohio, USA) for up to 16 days in vitro (DIV 1-16). Cultures of DIV 14-16 were used for stimulation.
Silk solution and porous scaffolds were prepared from Bombyx mori cocoons as described previously (Tang-Schomer et al., 2014). […]

Where [1] appears, read: 48 hr exposure after local delivery of soluble factor.
Where [2] appears, read: 4 ds exposure of soluble factor (DIV 7), in µm.

Regarding laminin [LN], the “axon abundance in center core of 3D cultures (β III-tubulin 2D projections)” value (from here on “axon abundance in center core”) is “more abundant axons”, the “axons longer compared to BDNF” value is on record as roughly 18% and the “axons longer compared to the control” value is roughly 33%. The same molecule showed an Axon length under setting [1] of 1237.7±51.3 μm. Further, under setting [2], the Axon length is given as 1332.5±71.0.
Consider nerve growth factor [NGF], for which the Axon length reads like this: under setting [1], 706.5±33.4 μm; under setting [2], 1045.6±61.9.
Consider fibronectin [FN], for which the “axon abundance in center core” value is reported as “more abundant axons”, the “axons longer compared to BDNF” value is on record as roughly 25% and the “axons longer compared to the control” value is reported as roughly 41%. Further, the Axon length under setting [1] was 1220.7±57.5 μm. The same molecule had an Axon length under setting [2] of 1411.8±45.1.

B1: neurotrophin-3 (protein, UniProt P20783 139-257, looked up)
Neurotrophin-3: YAEHKSHRGEYSVCDSESLWVTDKSSAIDIRGHQVTVLGEIKTGNSPVKQYFYETRCKEARPVKNGCRGIDDKHWNSQCKTSQTYVRALTSENNKLVGWRWIRIDTSCVCALSRKIGRT
notes: neurotrophic factor delivered locally as soluble factor
In the case of B1, the “axon appearance after 48 hr exposure” value (48 hr exposure) is reported as “robust growth”. The molecule further yielded an Axon length under setting [1] of 728.2±42.5 μm and an Axon length under setting [2] of 784.3±71.6. For the same molecule, under “4 days after local delivery”, the “axon appearance after 4 days” value is “signs of axon degeneration”.

B2: brain-derived neurotrophic factor (protein, UniProt P23560 19-247, looked up)
Neurotrophic factor BDNF …: APMKEANIRGQGGLAYPGVRTHGTLESVNGPKAGSRGLTSLADTFEHVIEELLDEDQKVRPNEENNKDADLYTSRVMLSSQVPLEPPLLFLLEEYKNYLDAANMSMRVRRHSDPARRGELSVCDSISEWVTAADKKTAVDMSGGTVTVLEKVPVSKGQLKQYFYETKCNPMGYTKEGCRGIDKRHWNSQCRTTQSYVRALTMDSKKRIGWRFIRIDTSCVCTLTIKRGR
notes: as for B1
As for B2, the “axon abundance in center core” value is “most abundant axons” and the “axons longer compared to the control” value is on record as roughly 13%. This molecule returned an Axon length under setting [1] of 946.8±35.2 μm. The Axon length under setting [2] was determined as 1131.1±52.0.

B3: glial-derived neurotrophic factor (protein, UniProt P39905 78-211, looked up)
Glial cell line-derived …: SPDKQMAVLPRRERNRQAAAANPENSRGKGRRGQRGKNRGCVLTAIHLNVTDLGLGYETKEELIFRYCSGSCDAAETTYDKILKNLSRNRRLVSDKVGQACCRPIAFDDDLSFLDDNLVYHILRKHSAKRCGCI
notes: as for B1
B3 showed an Axon length under setting [1] of 802.5±38.0 μm and an Axon length under setting [2] of 1068.3±43.9.

Values taken from patent US11291840B2, “Neuronal stimulation model, device and methods using alternate current” (priority 2017, dated 2022).
